Results reported in ChEMBL document CHEMBL1201862, “PubChem BioAssay data set” (2004).
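Method: 48-hour compound exposure of cells in 96-well plates, five concentrations, linear interpolation of endpoints. Abbreviation: GI50, concentration required for 50% inhibition of growth.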 Activity calls are given as the source filed them. No stated cut-off is given here; in the data, active = GI50 up to about 1.1 µM and inactive = higher.

How the values were obtained:
Test in all cases: inhibition of tumour cell growth, NCI panel, 48 h
786-0 = tested on: 786-0
A498 = tested on: A498
A549 = tested on: A549
ACHN = tested on: ACHN
CAKI-1 = tested on: CAKI-1
CCRF-CEM = tested on: CCRF-CEM
COLO 205 = tested on: COLO 205
DLD-1 = tested on: DLD-1
DMS-114 = tested on: DMS-114
DMS-273 = tested on: DMS-273
EKVX = tested on: EKVX
HCC 2998 = tested on: HCC 2998
HCT-116 = tested on: HCT-116
HCT-15 = tested on: HCT-15
HL-60 = tested on: HL-60
HOP-62 = tested on: HOP-62
HOP-92 = tested on: HOP-92
HT-29 = tested on: HT-29
IGROV-1 = tested on: IGROV-1
K562 = tested on: K562
KM-20L2 = tested on: KM-20L2
KM12 = tested on: KM12
LOX IMVI = tested on: LOX IMVI
LXFL 529 = tested on: LXFL 529
M14 = tested on: M14
M19-MEL = tested on: M19-MEL
MOLT-4 = tested on: MOLT-4
Malme-3M = tested on: Malme-3M
NCI-H226 = tested on: NCI-H226
NCI-H23 = tested on: NCI-H23
NCI-H460 = tested on: NCI-H460
NCI-H522 = tested on: NCI-H522
OVCAR-3 = tested on: OVCAR-3
OVCAR-4 = tested on: OVCAR-4
OVCAR-5 = tested on: OVCAR-5
OVCAR-8 = tested on: OVCAR-8
RPMI-8226 = tested on: RPMI-8226
RXF 393 = tested on: RXF 393
RXF 631 = tested on: RXF 631
SF-268 = tested on: SF-268
SF-295 = tested on: SF-295
SF-539 = tested on: SF-539
SK-MEL-28 = tested on: SK-MEL-28
SK-MEL-5 = tested on: SK-MEL-5
SK-OV-3 = tested on: SK-OV-3
SN12C = tested on: SN12C
SNB-19 = tested on: SNB-19
SNB-75 = tested on: SNB-75
SNB-78 = tested on: SNB-78
SW-620 = tested on: SW-620
TK-10 = tested on: TK-10
U-251 = tested on: U-251
UACC-257 = tested on: UACC-257
UACC-62 = tested on: UACC-62
UO-31 = tested on: UO-31
HOP-18 = tested on: HOP-18
SK-MEL-2 = tested on: SK-MEL-2
SR = tested on: SR
XF498 = tested on: XF498

With `CC[N+](C)(CC)CC(C)(C)C(=O)/C=C/c1ccc(/C=C/C(=O)C(C)(C)C[N+](C)(CC)CC)cc1` the GI50 (786-0) was > 100 µM (inactive), the GI50 (A498) was > 100 µM (inactive) and the GI50 (A549) was > 100 µM (inactive). For the same molecule, the GI50 (ACHN) was > 100 µM (inactive), the GI50 (CAKI-1) was > 100 µM (inactive) and the GI50 (CCRF-CEM) was > 100 µM (inactive). The GI50 (COLO 205) was > 100 µM (inactive), the GI50 (DLD-1) was > 100 µM (inactive) and the GI50 (DMS-114) was > 100 µM (inactive). The GI50 (DMS-273) was > 100 µM (inactive), the GI50 (EKVX) was > 100 µM (inactive) and the GI50 (HCC 2998) was > 100 µM (inactive). For the same molecule, the GI50 (HCT-116) was > 100 µM (inactive), the GI50 (HCT-15) was over 100 µM and the GI50 (HL-60) was > 100 µM (inactive). The GI50 (HOP-62) was > 100 µM (inactive), the GI50 (HOP-92) was > 100 µM (inactive) and the GI50 (HT-29) was > 100 µM (inactive). For the same molecule, the GI50 (IGROV-1) was > 100 µM (inactive), the GI50 (K562) was > 100 µM (inactive) and the GI50 (KM-20L2) was > 100 µM (inactive). The GI50 (KM12) was > 100 µM (inactive), the GI50 (LOX IMVI) was > 100 µM (inactive) and the GI50 (LXFL 529) was > 100 µM (inactive). For the same molecule, the GI50 (M14) was > 100 µM (inactive), the GI50 (M19-MEL) was > 100 µM (inactive) and the GI50 (MOLT-4) was > 100 µM (inactive). The GI50 (Malme-3M) was > 100 µM (inactive), the GI50 (NCI-H226) was > 100 µM (inactive) and the GI50 (NCI-H23) was > 100 µM (inactive). For the same molecule, the GI50 (NCI-H460) was > 100 µM (inactive), the GI50 (NCI-H522) was > 100 µM (inactive) and the GI50 (OVCAR-3) was > 100 µM (inactive). The GI50 (OVCAR-4) was > 100 µM (inactive), the GI50 (OVCAR-5) was > 100 µM (inactive) and the GI50 (OVCAR-8) was > 100 µM (inactive). For the same molecule, the GI50 (RPMI-8226) was > 100 µM (inactive), the GI50 (RXF 393) was > 100 µM (inactive) and the GI50 (RXF 631) was > 100 µM (inactive). The GI50 (SF-268) was > 100 µM (inactive), the GI50 (SF-295) was > 100 µM (inactive) and the GI50 (SF-539) was > 100 µM (inactive). The GI50 (SK-MEL-28) was > 100 µM (inactive), the GI50 (SK-MEL-5) was > 100 µM (inactive) and the GI50 (SK-OV-3) was > 100 µM (inactive). The GI50 (SN12C) was > 100 µM (inactive), the GI50 (SNB-19) was > 100 µM (inactive) and the GI50 (SNB-75) was > 100 µM (inactive). For the same molecule, the GI50 (SNB-78) was > 100 µM (inactive), the GI50 (SW-620) was > 100 µM (inactive) and the GI50 (TK-10) was > 100 µM (inactive). The GI50 (U-251) was > 100 µM (inactive), the GI50 (UACC-257) was > 100 µM (inactive) and the GI50 (UACC-62) was > 100 µM (inactive). The GI50 (UO-31) was > 100 µM (inactive).

`O=C(O)CCC(=O)OCN1C(=O)C2C3C=CC(C2C1=O)C1C2C(=O)N(COC(=O)CCC(=O)O)C(=O)C2C31` (stereo not drawn) was tested, and the GI50 (786-0) was > 62.7 µM (inactive), the GI50 (A498) was > 100 µM (inactive) and the GI50 (A549) was > 100 µM (inactive). The GI50 (ACHN) was > 67 µM (inactive), the GI50 (CAKI-1) was > 100 µM (inactive) and the GI50 (CCRF-CEM) was 34 µM (inactive). The GI50 (COLO 205) was > 57.8 µM (inactive), the GI50 (DLD-1) was > 57.7 µM (inactive) and the GI50 (DMS-114) was > 48.1 µM (inactive). For the same molecule, the GI50 (DMS-273) was > 43.2 µM (inactive), the GI50 (EKVX) was > 100 µM (inactive) and the GI50 (HCC 2998) was > 100 µM (inactive). For the same molecule, the GI50 (HCT-116) was > 37.8 µM (inactive), the GI50 (HCT-15) was 32.4 µM and the GI50 (HL-60) was 23.4 µM (inactive). For the same molecule, the GI50 (HOP-18) was 76.9 µM (inactive), the GI50 (HOP-62) was > 100 µM (inactive) and the GI50 (HOP-92) was > 100 µM (inactive). The GI50 (HT-29) was > 100 µM (inactive), the GI50 (IGROV-1) was > 100 µM (inactive) and the GI50 (K562) was > 100 µM (inactive). For the same molecule, the GI50 (KM-20L2) was > 100 µM (inactive), the GI50 (KM12) was 97.5 µM (inactive) and the GI50 (LOX IMVI) was > 45.5 µM (inactive). The GI50 (LXFL 529) was > 100 µM (inactive), the GI50 (M14) was > 100 µM (inactive) and the GI50 (M19-MEL) was > 61.1 µM (inactive). For the same molecule, the GI50 (MOLT-4) was > 90.4 µM (inactive), the GI50 (Malme-3M) was > 100 µM (inactive) and the GI50 (NCI-H226) was > 100 µM (inactive). For the same molecule, the GI50 (NCI-H23) was > 100 µM (inactive), the GI50 (NCI-H460) was 32.5 µM (inactive) and the GI50 (NCI-H522) was > 47 µM (inactive). The GI50 (OVCAR-3) was > 100 µM (inactive), the GI50 (OVCAR-4) was > 100 µM (inactive) and the GI50 (OVCAR-5) was > 100 µM (inactive). For the same molecule, the GI50 (OVCAR-8) was 56.9 µM (inactive), the GI50 (RPMI-8226) was 21.4 µM (inactive) and the GI50 (RXF 393) was > 100 µM (inactive). For the same molecule, the GI50 (SF-268) was > 78.9 µM (inactive), the GI50 (SF-295) was > 100 µM (inactive) and the GI50 (SF-539) was > 100 µM (inactive). The GI50 (SK-MEL-28) was > 100 µM (inactive), the GI50 (SK-MEL-2) was > 100 µM (inactive) and the GI50 (SK-MEL-5) was > 100 µM (inactive). The GI50 (SK-OV-3) was > 100 µM (inactive), the GI50 (SN12C) was > 86.5 µM (inactive) and the GI50 (SNB-19) was > 100 µM (inactive). The GI50 (SNB-75) was > 95.7 µM (inactive), the GI50 (SNB-78) was > 100 µM (inactive) and the GI50 (SR) was 30.8 µM (inactive). For the same molecule, the GI50 (SW-620) was 38.4 µM (inactive), the GI50 (TK-10) was > 100 µM (inactive) and the GI50 (U-251) was > 65.8 µM (inactive). For the same molecule, the GI50 (UACC-257) was > 100 µM (inactive), the GI50 (UACC-62) was > 100 µM (inactive) and the GI50 (UO-31) was 98.6 µM (inactive). For the same molecule, the GI50 (XF498) was > 100 µM (inactive).
